Assay results published in patent US10543208B2, “Treatment of gliomas using organonitro compound combination therapy” (priority 2015, dated 2020).

System: temozolomide-resistant EGFRvIII/Arfko GBM (NSCG) cells
Assay: Survival of mice after intracranial injection of NSCG tumors
Assay type: in vivo, FVBN mice
Settings: ABDNAZ 10 mg/kg intraperitoneal, temozolomide 40 mg/kg oral gavage
Method: Mice implanted with temozolomide-resistant EGFRvIII/Arfko GBM (NSCG) cells were treated with (i) ABDNAZ (RRx-001, 10 mg/kg, intraperitoneal injection), (ii) temozolomide (TMZ)(40 mg/kg, oral gavage), or (iii) ABDNAZ (10 mg/kg, intraperitoneal injection) and temozolomide (40 mg/kg, oral gavage).
NSCG tumors were intracranially injected into FVBN mice. Mice to be treated were treated with one of the following (i) ABDNAZ (10 mg/kg, intraperitoneal injection), (ii) temozolomide (40 mg/kg, oral gavage), or (iii) ABDNAZ (10 mg/kg, intraperitoneal injection) and temozolomide (40 mg/kg, oral gavage). In a first experiment, treatment (i.e., administration of ABDNAZ (RRx-001), temozolomide (TMZ), or both ABDNAZ and temozolomide) was started five days after intracranial injection of NSCG cells. The control population of mice contained ten mice, the group receiving only ABDNAZ had twelve mice, the group receiving only temozolomide had twelve mice, and the group receiving both ABDNAZ and temozolomide had sixteen mice. Mouse survival was monitored over time.
In a second experiment, treatment (i.e., administration of ABDNAZ (RRx-001), temozolomide (TMZ), or both ABDNAZ and temozolomide) was started ten days after intracranial injection of NSCG cells. The control population of mice contained three mice, the group receiving only ABDNAZ had five mice, the group receiving only temozolomide had four mice, and the group receiving both ABDNAZ and temozolomide had six mice. Mouse survival was monitored over time.

[1] = treatment started five days after intracranial injection of NSCG cells, control 22.2
[2] = treatment started ten days after intracranial injection of NSCG cells, control 22.1

Row | Compound | Median Survival Time [1] [days] | Median Survival Time [2] [days]
1 | O=C(CBr)N1CC([N+](=O)[O-])([N+](=O)[O-])C1 [ABDNAZ] | 25.3 | 22.5
2 | Cn1nnc2c(C(N)=O)ncn2c1=O [TMZ, 3,4-dihydro-3-methyl-4-oxoimidazo[5,1-d]-as-tetrazine-8-carboxamide] | 22.3 | 22.3
